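Grown in 96-well plates, cells were treated for 48 hours with each compound at five concentrations. Insufficient inhibition: endpoint recorded as highest concentration tested. Abbreviation: GI50, concentration required for 50% inhibition of growth.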 Active and inactive are the calls of the source. No stated cut-off is given here; in the data, active = GI50 up to about 1.1 µM and inactive = higher.
Columns and labels:
Experiment in all cases: NCI-60 cell line screen, 48 h
SK-MEL-5 = test system: SK-MEL-5
U-251 = test system: U-251
SK-MEL-2 = test system: SK-MEL-2
NCI-H460 = test system: NCI-H460
SNB-19 = test system: SNB-19
KM12 = test system: KM12
SW-620 = test system: SW-620
NCI-H23 = test system: NCI-H23
OVCAR-5 = test system: OVCAR-5
A498 = test system: A498
DU-145 = test system: DU-145
UO-31 = test system: UO-31
OVCAR-3 = test system: OVCAR-3
NCI/ADR-RES = test system: NCI/ADR-RES
COLO 205 = test system: COLO 205
A549 = test system: A549
RXF 393 = test system: RXF 393
UACC-62 = test system: UACC-62
SN12C = test system: SN12C
M14 = test system: M14
MDA-MB-435 = test system: MDA-MB-435
SF-268 = test system: SF-268
PC-3 = test system: PC-3
TK-10 = test system: TK-10
OVCAR-4 = test system: OVCAR-4
CAKI-1 = test system: CAKI-1
MCF7 = test system: MCF7
T47D = test system: T47D
HT-29 = test system: HT-29
786-0 = test system: 786-0
OVCAR-8 = test system: OVCAR-8
ACHN = test system: ACHN
SR = test system: SR
HCC 2998 = test system: HCC 2998
SK-MEL-28 = test system: SK-MEL-28
Hs-578T = test system: Hs-578T
CCRF-CEM = test system: CCRF-CEM
LOX IMVI = test system: LOX IMVI
K562 = test system: K562
UACC-257 = test system: UACC-257
HOP-62 = test system: HOP-62
MDA-MB-231 = test system: MDA-MB-231
NCI-H226 = test system: NCI-H226
HCT-116 = test system: HCT-116
SK-OV-3 = test system: SK-OV-3
RPMI-8226 = test system: RPMI-8226
HCT-15 = test system: HCT-15
SNB-75 = test system: SNB-75
SF-539 = test system: SF-539
MOLT-4 = test system: MOLT-4
SF-295 = test system: SF-295
MDA-N = test system: MDA-N
HOP-92 = test system: HOP-92
HL-60 = test system: HL-60
EKVX = test system: EKVX
IGROV-1 = test system: IGROV-1
NCI-H522 = test system: NCI-H522
Malme-3M = test system: Malme-3M

Structure (SMILES): COC1CCC(=O)N1CN(C(C)=O)c1ccc(C)cc1 (stereo not drawn)
- GI50 (SK-MEL-5): > 100 µM (inactive)
- GI50 (U-251): > 100 µM (inactive)
- GI50 (SK-MEL-2): > 100 µM (inactive)
- GI50 (NCI-H460): > 100 µM (inactive)
- GI50 (SNB-19): > 100 µM (inactive)
- GI50 (KM12): > 100 µM (inactive)
- GI50 (SW-620): > 100 µM (inactive)
- GI50 (NCI-H23): > 100 µM (inactive)
- GI50 (OVCAR-5): > 100 µM (inactive)
- GI50 (A498): > 10 µM (inactive)
- GI50 (DU-145): > 100 µM (inactive)
- GI50 (UO-31): > 100 µM (inactive)
- GI50 (OVCAR-3): > 100 µM (inactive)
- GI50 (NCI/ADR-RES): > 100 µM (inactive)
- GI50 (COLO 205): > 100 µM (inactive)
- GI50 (A549): > 100 µM (inactive)
- GI50 (RXF 393): > 100 µM (inactive)
- GI50 (UACC-62): > 100 µM (inactive)
- GI50 (SN12C): > 100 µM (inactive)
- GI50 (M14): > 100 µM (inactive)
- GI50 (MDA-MB-435): > 100 µM (inactive)
- GI50 (SF-268): > 100 µM (inactive)
- GI50 (PC-3): > 100 µM (inactive)
- GI50 (TK-10): > 100 µM (inactive)
- GI50 (OVCAR-4): > 100 µM (inactive)
- GI50 (CAKI-1): > 100 µM (inactive)
- GI50 (MCF7): > 100 µM (inactive)
- GI50 (T47D): > 100 µM (inactive)
- GI50 (HT-29): > 100 µM (inactive)
- GI50 (786-0): > 100 µM (inactive)
- GI50 (OVCAR-8): > 100 µM (inactive)
- GI50 (ACHN): > 100 µM (inactive)
- GI50 (SR): > 100 µM (inactive)
- GI50 (HCC 2998): > 100 µM (inactive)
- GI50 (SK-MEL-28): > 100 µM (inactive)
- GI50 (Hs-578T): > 100 µM (inactive)
- GI50 (CCRF-CEM): 0.0569 µM (active)
- GI50 (LOX IMVI): > 100 µM (inactive)
- GI50 (K562): > 100 µM (inactive)
- GI50 (UACC-257): > 100 µM (inactive)
- GI50 (HOP-62): > 100 µM (inactive)
- GI50 (MDA-MB-231): > 100 µM (inactive)
- GI50 (NCI-H226): > 100 µM (inactive)
- GI50 (HCT-116): > 100 µM (inactive)
- GI50 (SK-OV-3): > 100 µM (inactive)
- GI50 (RPMI-8226): > 100 µM (inactive)
- GI50 (HCT-15): > 100 µM
- GI50 (SNB-75): > 100 µM (inactive)
- GI50 (SF-539): > 100 µM (inactive)
- GI50 (MOLT-4): > 100 µM (inactive)
- GI50 (SF-295): > 100 µM (inactive)
- GI50 (MDA-N): > 100 µM (inactive)

Structure (SMILES): Cc1ccc2c(c1)C(=O)C1(C2)Cc2cccc(C)c2C1=O (stereo not drawn)
- GI50 (SK-MEL-5): > 100 µM (inactive)
- GI50 (U-251): > 100 µM (inactive)
- GI50 (HOP-92): 55 µM (inactive)
- GI50 (NCI-H460): > 100 µM (inactive)
- GI50 (SNB-19): 35.2 µM (inactive)
- GI50 (KM12): > 100 µM (inactive)
- GI50 (SW-620): > 100 µM (inactive)
- GI50 (HL-60): > 100 µM (inactive)
- GI50 (EKVX): > 100 µM (inactive)
- GI50 (NCI-H23): > 100 µM (inactive)
- GI50 (OVCAR-5): > 100 µM (inactive)
- GI50 (A498): > 100 µM (inactive)
- GI50 (DU-145): > 100 µM (inactive)
- GI50 (UO-31): 4.41 µM (inactive)
- GI50 (OVCAR-3): > 100 µM (inactive)
- GI50 (NCI/ADR-RES): > 100 µM (inactive)
- GI50 (COLO 205): > 100 µM (inactive)
- GI50 (A549): > 100 µM (inactive)
- GI50 (RXF 393): > 100 µM (inactive)
- GI50 (UACC-62): 77.3 µM (inactive)
- GI50 (SN12C): > 100 µM (inactive)
- GI50 (M14): > 100 µM (inactive)
- GI50 (MDA-MB-435): > 100 µM (inactive)
- GI50 (SF-268): > 100 µM (inactive)
- GI50 (PC-3): > 100 µM (inactive)
- GI50 (TK-10): > 100 µM (inactive)
- GI50 (OVCAR-4): > 100 µM (inactive)
- GI50 (CAKI-1): 0.0418 µM (active)
- GI50 (MCF7): > 100 µM (inactive)
- GI50 (IGROV-1): > 100 µM (inactive)
- GI50 (T47D): > 100 µM (inactive)
- GI50 (HT-29): > 100 µM (inactive)
- GI50 (786-0): > 100 µM (inactive)
- GI50 (OVCAR-8): > 100 µM (inactive)
- GI50 (ACHN): > 100 µM (inactive)
- GI50 (SR): > 100 µM (inactive)
- GI50 (HCC 2998): > 100 µM (inactive)
- GI50 (SK-MEL-28): > 100 µM (inactive)
- GI50 (Hs-578T): > 100 µM (inactive)
- GI50 (CCRF-CEM): > 100 µM (inactive)
- GI50 (LOX IMVI): > 100 µM (inactive)
- GI50 (K562): > 100 µM (inactive)
- GI50 (UACC-257): > 100 µM (inactive)
- GI50 (HOP-62): 88.9 µM (inactive)
- GI50 (MDA-MB-231): > 100 µM (inactive)
- GI50 (NCI-H226): > 100 µM (inactive)
- GI50 (HCT-116): > 100 µM (inactive)
- GI50 (SK-OV-3): > 100 µM (inactive)
- GI50 (NCI-H522): > 100 µM (inactive)
- GI50 (RPMI-8226): > 100 µM (inactive)
- GI50 (HCT-15): > 100 µM
- GI50 (SNB-75): > 100 µM (inactive)
- GI50 (SF-539): > 100 µM (inactive)
- GI50 (MOLT-4): > 100 µM (inactive)
- GI50 (SF-295): > 100 µM (inactive)
- GI50 (Malme-3M): > 100 µM (inactive)
- GI50 (MDA-N): > 100 µM (inactive)

Structure (SMILES): Cc1ccc2nc(SCC(=O)N/N=C3\C(=O)Nc4ccccc43)n(-c3ccccc3)c(=O)c2c1
- GI50 (SK-MEL-5): 15.7 µM (inactive)
- GI50 (U-251): 12.3 µM (inactive)
- GI50 (HOP-92): 14.3 µM (inactive)
- GI50 (SK-MEL-2): 1.69 µM (inactive)
- GI50 (NCI-H460): 15.6 µM (inactive)
- GI50 (SNB-19): 17.5 µM (inactive)
- GI50 (KM12): 13.6 µM (inactive)
- GI50 (SW-620): 23.6 µM (inactive)
- GI50 (HL-60): 25.5 µM (inactive)
- GI50 (EKVX): 15.6 µM (inactive)
- GI50 (NCI-H23): 16.4 µM (inactive)
- GI50 (OVCAR-5): 15.8 µM (inactive)
- GI50 (A498): 14.9 µM (inactive)
- GI50 (DU-145): 13.4 µM (inactive)
- GI50 (UO-31): 2.02 µM (inactive)
- GI50 (OVCAR-3): 18.8 µM (inactive)
- GI50 (NCI/ADR-RES): 13.3 µM (inactive)
- GI50 (COLO 205): 13.4 µM (inactive)
- GI50 (A549): 15.2 µM (inactive)
- GI50 (RXF 393): 14.1 µM (inactive)
- GI50 (UACC-62): 16.9 µM (inactive)
- GI50 (SN12C): 15.7 µM (inactive)
- GI50 (M14): 16.3 µM (inactive)
- GI50 (MDA-MB-435): 16.5 µM (inactive)
- GI50 (SF-268): 13.7 µM (inactive)
- GI50 (PC-3): 17.1 µM (inactive)
- GI50 (TK-10): 15.5 µM (inactive)
- GI50 (OVCAR-4): 13.2 µM (inactive)
- GI50 (CAKI-1): 18.6 µM (inactive)
- GI50 (MCF7): 16.1 µM (inactive)
- GI50 (T47D): 15.5 µM (inactive)
- GI50 (HT-29): 19.4 µM (inactive)
- GI50 (786-0): 16 µM (inactive)
- GI50 (ACHN): 13.8 µM (inactive)
- GI50 (SR): 19.5 µM (inactive)
- GI50 (HCC 2998): 14.8 µM (inactive)
- GI50 (SK-MEL-28): 15.4 µM (inactive)
- GI50 (Hs-578T): 17.8 µM (inactive)
- GI50 (CCRF-CEM): 18.4 µM (inactive)
- GI50 (LOX IMVI): 15.6 µM (inactive)
- GI50 (K562): 23.7 µM (inactive)
- GI50 (UACC-257): 24 µM (inactive)
- GI50 (HOP-62): 12.2 µM (inactive)
- GI50 (MDA-MB-231): 10.9 µM (inactive)
- GI50 (NCI-H226): 16.2 µM (inactive)
- GI50 (HCT-116): 15.1 µM (inactive)
- GI50 (SK-OV-3): 13.8 µM (inactive)
- GI50 (RPMI-8226): 17.6 µM (inactive)
- GI50 (HCT-15): 17.2 µM
- GI50 (SF-539): 5.7 µM (inactive)
- GI50 (MOLT-4): 17.6 µM (inactive)
- GI50 (SF-295): 15.8 µM (inactive)
- GI50 (Malme-3M): 20.2 µM (inactive)
- GI50 (MDA-N): 19 µM (inactive)

— ChEMBL document CHEMBL1201862, “PubChem BioAssay data set” (2004)
